Values joined by “and” are separate entries in the source; they are usually repeats but may differ in a detail not shown here. Equal entries are not always repeated. Where two headings read alike, the source gives them in different places.
Columns and labels:
CYP2C19 = target: T1, CYP2C19 (Homo sapiens, UniProt P33261); assay: Intrinsic clearance using recombinant CYPs: CYP2C19; format: in vitro ADME
T1 construct: purchased Corning Life Sciences (Woburn, MA, USA)
Experimental: (§1) The elimination profiles of tegoprazan and M1 were assessed using rCYPs. All the assay procedures were performed according to the manufacturer’s instructions. Master mix (1.399 mL), containing the NADPH-generating system, 3.3 mM of glucose 6-phosphate, PBS buffer, deionized water, and each rCYP (25 pmol/μL of CYP2C8, 2C19, and 2E1 and 50 pmol/μL of CYP3A4, 2C9, and 2D6), was added to a microtube and pre-incubated at 37 °C for 5 min. Next, 1 μM tegoprazan and M1 were added and incubated at 37 °C for 0, 5, 10, 20, 30, 45, and 60 min. A total of 100 μL of the sample, incubated for predefined duration, was transferred to a fresh e-tube. Next, 200 μL of acetonitrile containing tegoprazan-d6 (0.5 μM) was added, vortexed for 5 min, and centrifuged at 16,200× g and 4 °C for 10 min. The concentrations of the remaining tegoprazan and M1 were determined by LC–MS/MS. All experiments were performed in duplicate. CLint,rCYP levels were assessed using the results of the disappearance test. […] The CLint resulting from rCYPs was calculated using Equation (3):(3) CLint,rCYP(μL/min/pmol CYP)=0.693/t1/2×1400/concentration of CYP
(§2) Caco-2 and rCYP samples were quantified using LC-MS/MS (UPLC® I-class coupled with TQ-MS (Waters, Milford, MA, USA). The mobile phase comprised (a) 0.1% formic acid and (b) acetonitrile containing 0.1% formic acid. Gradient elution at a flow rate of 0.3 mL/min was applied. Tegoprazan, M1, and the internal standard (tegoprazan-d6) were optimized in electrospray ionization positive mode. Acetonitrile with 0.1 μM of tegoprazan-d6 was added to the collected Caco-2 or rCYP samples. Then, processed samples were centrifuged at 13,000× g for 20 min. After centrifugation, 100 μL of supernatant was transferred to an LC-MS vial and analyzed using LC-MS/MS. […] The stability of tegoprazan was evaluated, and it satisfied the acceptance criteria (coefficient of variances was within 15%) under variable conditions including reinjection, processed sample stability (PSS), and short-term stability for the stock and sample.

CYP3A4 [1] = target: T2, CYP3A4 (Homo sapiens, UniProt P08684); assay: Intrinsic clearance using recombinant CYPs: CYP3A4; format: in vitro ADME
T2 construct: purchased Corning Life Sciences (Woburn, MA, USA)
T2 sequence (P08684 whole entry): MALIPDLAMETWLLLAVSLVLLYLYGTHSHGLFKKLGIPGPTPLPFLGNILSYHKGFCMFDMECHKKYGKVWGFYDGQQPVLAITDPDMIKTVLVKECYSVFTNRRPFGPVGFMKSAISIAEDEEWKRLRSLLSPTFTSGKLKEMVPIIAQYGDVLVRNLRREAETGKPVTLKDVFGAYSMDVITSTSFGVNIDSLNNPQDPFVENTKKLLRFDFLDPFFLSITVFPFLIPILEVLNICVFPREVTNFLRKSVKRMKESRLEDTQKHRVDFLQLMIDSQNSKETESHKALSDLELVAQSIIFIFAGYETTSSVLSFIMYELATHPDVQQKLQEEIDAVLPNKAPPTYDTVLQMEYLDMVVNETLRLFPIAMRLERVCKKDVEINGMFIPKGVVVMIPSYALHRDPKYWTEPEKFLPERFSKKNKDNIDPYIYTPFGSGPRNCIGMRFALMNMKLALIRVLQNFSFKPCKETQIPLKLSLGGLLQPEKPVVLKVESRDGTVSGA
Experimental: as §1, §2

[2] = design: method as in PMID 32055586; conditions: Observed (n = 12); single 100 mg tegoprazan; mean (5th–95th percentile); cited from earlier work
[3] = design: method as in PMID 33131095; conditions: 100 mg repeatedly; 10 healthy Chinese subjects; cited from earlier work
[4] = ADAM model prediction of regional absorption, gut metabolism, surface solubility and residence time; design: species or system human; conditions: at 30 min after a high-fat meal
Experimental: The absorption of tegoprazan was applied to the advanced dissolution, absorption, and metabolism (ADAM) model, and the diffusion layer model (DLM) built into SimCYP® was applied to the considered formulation and pH-dependent solubility of tegoprazan. The permeability of tegoprazan was determined by a Caco-2 permeability assay and optimized by parameter estimation. Caco-2 permeability was optimized such that the predicted concentration–time profiles were fitted to clinical study data. The metabolite was generated by the metabolism of the parent drug; therefore, absorption was not considered.
Postprandial PK profiles were predicted using an established model. Concentration–time profiles were obtained following a single oral dose (50 mg) of tegoprazan in the fasting state or 30 min after a high-fat diet. The predicted AUClast, Cmax, and Tmax values were compared with those of a previous clinical study.

[5] = design: method as in earlier work; conditions: cited from earlier work
recombinant CYP2D6 = target: T3, recombinant CYP2D6 (Homo sapiens, UniProt P10635); assay: Intrinsic clearance using recombinant CYPs: CYP2D6; format: in vitro ADME; conditions: 1 μM
T3 construct: purchased Corning Life Sciences (Woburn, MA, USA)
T3 sequence (P10635 whole entry): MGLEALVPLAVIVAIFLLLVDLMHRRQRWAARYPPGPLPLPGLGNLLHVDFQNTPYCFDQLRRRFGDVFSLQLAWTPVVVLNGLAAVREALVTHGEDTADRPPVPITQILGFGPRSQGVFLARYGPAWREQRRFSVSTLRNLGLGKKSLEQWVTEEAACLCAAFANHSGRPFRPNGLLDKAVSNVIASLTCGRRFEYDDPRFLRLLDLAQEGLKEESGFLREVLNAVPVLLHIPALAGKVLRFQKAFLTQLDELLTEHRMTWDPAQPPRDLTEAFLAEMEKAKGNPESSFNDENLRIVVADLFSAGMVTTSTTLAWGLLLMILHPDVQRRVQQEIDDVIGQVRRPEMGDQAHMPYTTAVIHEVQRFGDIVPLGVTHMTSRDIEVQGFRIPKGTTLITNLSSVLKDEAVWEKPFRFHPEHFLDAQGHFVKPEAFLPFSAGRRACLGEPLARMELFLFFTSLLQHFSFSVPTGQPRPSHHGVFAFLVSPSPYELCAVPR
Experimental: The elimination profiles of tegoprazan and M1 were assessed using rCYPs. All the assay procedures were performed according to the manufacturer’s instructions. Master mix (1.399 mL), containing the NADPH-generating system, 3.3 mM of glucose 6-phosphate, PBS buffer, deionized water, and each rCYP (25 pmol/μL of CYP2C8, 2C19, and 2E1 and 50 pmol/μL of CYP3A4, 2C9, and 2D6), was added to a microtube and pre-incubated at 37 °C for 5 min. Next, 1 μM tegoprazan and M1 were added and incubated at 37 °C for 0, 5, 10, 20, 30, 45, and 60 min. A total of 100 μL of the sample, incubated for predefined duration, was transferred to a fresh e-tube. Next, 200 μL of acetonitrile containing tegoprazan-d6 (0.5 μM) was added, vortexed for 5 min, and centrifuged at 16,200× g and 4 °C for 10 min. The concentrations of the remaining tegoprazan and M1 were determined by LC–MS/MS. All experiments were performed in duplicate. CLint,rCYP levels were assessed using the results of the disappearance test. The terminal slope of the linear regression was used to determine the CLint for tegoprazan. The CLint resulting from rCYPs was calculated using Equation (3):(3) CLint,rCYP(μL/min/pmol CYP)=0.693/t1/2×1400/concentration of CYP […]

intragastric pH = test system: intragastric pH; design: method as in PMID 31437865; conditions: Observed (n = 6), cited from earlier work
porcine H^+/K^+-ATPase = conditions: experimental; read-out: half maximal inhibitory concentration (IC50); cited from earlier work
CYP3A4 [6] = test system: CYP3A4; design: method as in ref 18 = [18]; PMID 34575565; doi:10.3390/pharmaceutics13091489; 18. Yoon D.Y. Lee S. Jang I.-J. Kim M. Lee H. Kim S. Kim B. Song G.S. Rhee S.-J. Prediction of Drug–Drug Interaction Potential of Tegoprazan Using Physiologically Based Pharmacokinetic Modeling and Si; conditions: cited from earlier work
[7] = Physicochemical properties (solubility, pKa, LogP, BCS class); conditions: from high permeability and low solubility
CYP2E1 = target: T4, CYP2E1 (Homo sapiens, UniProt P05181); assay: Intrinsic clearance using recombinant CYPs: CYP2E1; format: in vitro ADME
T4 construct: purchased Corning Life Sciences (Woburn, MA, USA)
T4 sequence (P05181 whole entry): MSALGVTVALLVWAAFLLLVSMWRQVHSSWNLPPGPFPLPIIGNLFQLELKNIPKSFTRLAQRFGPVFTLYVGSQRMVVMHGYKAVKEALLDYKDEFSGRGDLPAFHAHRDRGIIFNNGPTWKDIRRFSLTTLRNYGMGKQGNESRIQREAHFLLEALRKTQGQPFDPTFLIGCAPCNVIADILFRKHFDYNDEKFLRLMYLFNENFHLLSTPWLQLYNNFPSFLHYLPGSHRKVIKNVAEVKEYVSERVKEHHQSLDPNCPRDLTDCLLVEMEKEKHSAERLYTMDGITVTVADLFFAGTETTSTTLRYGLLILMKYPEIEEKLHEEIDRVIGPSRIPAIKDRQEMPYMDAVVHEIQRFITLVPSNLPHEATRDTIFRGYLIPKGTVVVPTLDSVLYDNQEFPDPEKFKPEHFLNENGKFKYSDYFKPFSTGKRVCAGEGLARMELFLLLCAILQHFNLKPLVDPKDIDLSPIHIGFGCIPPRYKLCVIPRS
Experimental: as §1, §2

[8] = 1 μM, experimental (initial model value)

T1 sequence (P33261 whole entry): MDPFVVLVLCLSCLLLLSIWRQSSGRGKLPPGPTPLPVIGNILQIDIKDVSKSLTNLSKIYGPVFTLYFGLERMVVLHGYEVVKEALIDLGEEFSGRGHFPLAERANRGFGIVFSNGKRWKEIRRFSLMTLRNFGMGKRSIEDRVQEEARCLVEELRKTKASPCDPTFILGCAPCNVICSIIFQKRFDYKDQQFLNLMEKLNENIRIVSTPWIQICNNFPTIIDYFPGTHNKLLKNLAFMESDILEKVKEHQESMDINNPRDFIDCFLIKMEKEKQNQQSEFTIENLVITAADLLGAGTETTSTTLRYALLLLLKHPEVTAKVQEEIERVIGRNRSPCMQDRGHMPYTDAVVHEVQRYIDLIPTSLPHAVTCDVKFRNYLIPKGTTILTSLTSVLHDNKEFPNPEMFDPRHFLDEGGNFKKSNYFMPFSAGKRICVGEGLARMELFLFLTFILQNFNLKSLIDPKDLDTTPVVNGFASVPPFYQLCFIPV

With `Cc1nc2cc(C(=O)N(C)C)cc(O[C@H]3CCOc4cc(F)cc(F)c43)c2[nH]1` [tegoprazan] as the molecule, how does the “CLint, CYP2C19” value (CYP2C19; [8]) read?
Its value is 0.61 µL/min/pmol and 0.614 µL/min/pmol.

And the half-life at 1 μM (CYP2C19; human, recombinant CYP2C19, rCYP2C19)?
Its half-life at 1 μM is 1.05 h.

What about the “Slope (disappearance)” value (CYP2C19; rCYP2C19, 1 μM) of the same molecule?
Its value is -0.011.

What about the “CLint, CYP3A4” value (CYP3A4 [1]; [8]) of the same molecule?
The value was 0.86 µL/min/pmol and 0.855 µL/min/pmol.

What about the half-life at 1 μM (CYP3A4 [1]; human, recombinant CYP3A4, rCYP3A4) of the same molecule?
The half-life at 1 μM was 0.378 h.

And the “Slope (disappearance)” value (CYP3A4 [1]; rCYP3A4, 1 μM)?
Its value is -0.031.

And the “AUC0–24 h” value [2]?
Its value is 5611 (3783–7489) ng × h/mL.

And the CL [2]?
Its CL is 17.8 (13.1–24.4) L/h.

And the Cmax [2]?
Its Cmax is 1425 (908–2184) ng/mL.

And the “AUC and CL on Day 7 compared with Day 1” value [3]?
The value was “did not show a significant difference”.

What about the “Vd/F on Day 7 compared with Day 1” value [3] of the same molecule?
The value was “increased significantly”.

And the “increase of predicted absorbed fraction in the duodenum, fed vs fasting” value [4]?
The value was “approximately 72.7%”.

And the “increase of predicted mean residence time in the stomach, fed vs fasting” value [4]?
The value was “approximately 170.4%”.

What about the “increase of predicted surface solubility in the duodenum, fed vs fasted” value [4] of the same molecule?
Its value is 40.3%.

And the “increase of predicted surface solubility in the stomach, fed vs fasted” value [4]?
The value was 14.8%.

And the “CLR (renal clearance)” value [5]?
Its value is 1.1 L/h.

And the “fu (unbound fraction)” value ([5]; plasma)?
Its value is 0.087.

What about the “CLint, CYP2D6” value (recombinant CYP2D6; experimental data) of the same molecule?
Its value is 0.02 µL/min/pmol and 0.020 µL/min/pmol.

And the “Slope (disappearance)” value (recombinant CYP2D6; rCYP2D6)?
Its value is under 0.001.

What about the “pH ≥ 4 over 24 h” value (intragastric pH; 50 mg Single) of the same molecule?
The value was 48.9%.

And the “pH ≥ 4 over 24 h” value (intragastric pH; 100 mg q.d. for 7 Days, Day 1)?
Its value is 62.3%.

And the “pH ≥ 4 over 24 h” value (intragastric pH; 100 mg q.d. for 7 Days, Day 7)?
The value was 70.4%.

And the IC50 (porcine H^+/K^+-ATPase)?
The IC50 was 0.53 µM.

And the “predicted systemic exposure change” value (CYP3A4 [6]; co-administered with the maximum recommended dose of clarithromycin or ketoconazole vs without CYP3A4 modulator)?
Its value is “increased by approximately three-fold”.

And the “predicted decrease of systemic exposure” value (CYP3A4 [6]; with the CYP3A4 inducer rifampicin)?
The value was “up to 30%”.

What about the “biopharmaceutics classification system (BCS) class” value [7] of the same molecule?
The value was “class II”.

What about the “CLint, CYP2E1” value (CYP2E1; 1 μM, experimental data) of the same molecule?
The value was 0.03 µL/min/pmol and 0.030 µL/min/pmol.

And the half-life at 1 μM (CYP2E1; human, recombinant CYP2E1, rCYP2E1)?
Its half-life at 1 μM is 11.6 h.

And the “Slope (disappearance)” value (CYP2E1; rCYP2E1, 1 μM)?
Its value is -0.001.
